Source: BindingDB's records for doi:10.1016/j.bmcl.2009.05.120 (Royal College of Surgeons In Ireland, 2009)

Test: Inhibition of PGHS-1 in human platelet rich plasma assessed as inhibition of arachidonic acid-induced platelet aggregation in human platelet rich plasma treated 5 min before arachidonic acid challenge by turbidimetry

**Q.** With COC(=O)CCCCc1cccc(C(=O)OC)c1OC(C)=O [methyl 2-acetoxy-3-(5-methoxy-5-oxopentyl)benzoate] as the compound, how does the IC50 read?
**A.** The IC50 was 720 µM.
